The source of these data is doi:10.64898/2025.12.15.694265, “Small molecule inhibitor of PPARγ acetylation promotes insulin sensitization and browning of white adipose tissue with improved safety” (bioRxiv, 2025).

Assay [1] has as its target T1, PPARγ (Homo sapiens, UniProt P37231).
T1 construct: gene PPARG; human PPARγ2 expressed in HEK-293 cells
T1 sequence (P37231 1-505): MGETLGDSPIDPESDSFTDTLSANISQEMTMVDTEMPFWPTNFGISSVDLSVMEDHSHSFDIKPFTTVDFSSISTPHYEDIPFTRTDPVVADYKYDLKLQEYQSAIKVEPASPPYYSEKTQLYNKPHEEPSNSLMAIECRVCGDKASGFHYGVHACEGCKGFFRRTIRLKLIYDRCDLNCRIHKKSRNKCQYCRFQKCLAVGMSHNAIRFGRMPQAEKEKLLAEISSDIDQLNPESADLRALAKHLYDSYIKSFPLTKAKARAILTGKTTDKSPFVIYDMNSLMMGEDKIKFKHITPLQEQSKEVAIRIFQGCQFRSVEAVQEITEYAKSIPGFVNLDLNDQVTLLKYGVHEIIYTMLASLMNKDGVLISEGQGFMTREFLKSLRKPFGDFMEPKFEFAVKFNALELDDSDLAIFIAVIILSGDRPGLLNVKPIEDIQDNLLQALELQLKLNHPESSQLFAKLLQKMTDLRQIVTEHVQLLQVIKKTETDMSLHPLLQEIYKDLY
In words: 3xPPRE luciferase reporter in HEK293 cells, antagonism of Rosi activation. Format: cell-based.

Assay [2] concerns the target T2, PPARγ (Homo sapiens, UniProt P37231).
T2 construct: gene PPARG
T2 sequence (P37231 223-505): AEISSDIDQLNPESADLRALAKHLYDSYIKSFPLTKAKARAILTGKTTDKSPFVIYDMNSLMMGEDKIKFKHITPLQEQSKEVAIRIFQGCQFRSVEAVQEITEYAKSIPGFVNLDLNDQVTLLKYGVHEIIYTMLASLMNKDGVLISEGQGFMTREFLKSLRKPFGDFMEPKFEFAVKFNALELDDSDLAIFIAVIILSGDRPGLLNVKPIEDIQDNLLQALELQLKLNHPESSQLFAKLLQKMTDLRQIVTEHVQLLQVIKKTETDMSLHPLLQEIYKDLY
In words: X-ray co-crystal structure at […] Å; fluorescence polarization competition binding with GST-tagged LBD. On the technique in general: In fluorescence polarisation assays a small probe gives low polarisation when free and higher when bound to something large.

As for `O=C(Nc1ccccc1)c1cc([N+](=O)[O-])ccc1Cl` [GW, GW9662], the “3xPPRE luciferase reporter in HEK293 cells, antagonism of Rosi activation” value at PPARγ [1] is recorded as “GW9662 significantly diminished the activation of 3xPPRE reporter by Rosi”.

As usually defined, the IC50 is the midpoint of a concentration-inhibition curve. Lower therefore signals inhibition by little substance. `N#Cc1c(C2CCCCC2)nc(Sc2ccc(C(F)(F)F)cc2[N+](=O)[O-])[nH]c1=O` [TPMD, 4-cyclohexyl-2-((2-nitro-4-(trifluoromethyl)phenyl)thio)-6-oxo-1,6-dihydropyrimidine-5-carbonitrile] returned an IC50 on PPARγ [2] of about 5 µM.
